Patent US20090076047A1, “2-Substituted Hydroxylaminopyrimidine, Method for the Production and the Use Thereof in the Form of Pesticides” (priority 2005, published 2009)

Experiments:
Septoria tritici = test: Microtest No. 1: activity against the Septoria leaf spot pathogen Septoria tritici in the microtiter test; assay type: cell-based; settings: 125 ppm, day 7 after inoculation, absorption at 405 nm; active compound-free control = 100%
Protocol: Microtest No. 1—Activity Against the Septoria Leaf Spot Pathogen Septoria tritici in the Microtiter Test The stock solution was pipetted into a microtiter plate (MTP) and diluted with an aqueous malt-based fungus nutrient medium to the stated active compound concentration. An aqueous spore suspension of Septoria tritici was then added. The plates were placed in a water vapor-saturated chamber at temperatures of 18° C. On day 7 after the inoculation, the MTPs were measured in an absorption photometer at 405 nm. The measured parameters were compared to the growth of the active compound-free control variant (100%) and the fungus- and active compound-free blank value to determine the relative growth in % of the pathogens in the individual active compounds.

Pyricularia oryzae = assay type: cell-based; settings: 125 ppm, day 7 after inoculation, absorption at 405 nm; active compound-free control = 100%
Puccinia recondita = test: Curative activity against brown rust of wheat caused by Puccinia recondita (greenhouse); assay type: in vivo; settings: 63 ppm, wheat sprayed 1 day after inoculation (curative), 7 days; untreated control 90% infected
Protocol: The solution was then made up to 100 ml with water. This stock solution was diluted to the active compound concentration stated below using the solvent/emulsifier/water mixture described. Curative Activity Against Brown Rust of Wheat Caused by Puccinia recondita Leaves of potted wheat seedlings of the cultivar “Kanzler” were inoculated with a spore suspension of brown rust (Puccinia recondita). The pots were then placed into a chamber with high atmospheric humidity (90-95%) at 20-22° C. for 24 hours. During this time, the spores germinated and the germ tubes penetrated into the leaf tissue. The next day, the infected plants were sprayed to runoff point with the active compound solution described above having the concentration of active compound stated below. After the spray coating had dried on, the test plants were cultivated in a greenhouse at temperatures between 20 and 22° C. and at 65 to 70% relative atmospheric humidity for 7 days. The extent of the rust fungus development on the leaves was then determined.

[1] = test system: Erysiphe [syn. Blumeria] graminis forma specialis. tritici; test: Activity against mildew of wheat caused by Erysiphe [syn. Blumeria] graminis forma specialis tritici (greenhouse); assay type: in vivo, Erysiphe graminis f. sp. tritici; settings: 250 ppm, wheat seedlings, protective, assessed after 7 days, % of total leaf area; control 90% infected

SMILES	melting point [°C]	relative growth (Septoria tritici) [%]	relative growth (Pyricularia oryzae) [%]	also measured
CONC(=N)c1nc(Cl)c(-c2c(F)cc(F)cc2F)c(N2CCCO2)n1 [Compound 17, N-Methoxy-4-chloro-6-(isoxazolidin-2-yl)-5-(2,4,6-trifluorophenyl)-2-pyrimidinecarboximidamide]	192 to 193	–	–	–
CC1CCCN(c2nc(-n3cncn3)nc(Cl)c2-c2c(F)cc(F)cc2F)O1 (centres unmarked) [Compound 21, 4-Chloro-6-(6-methyltetrahydro-2H-(1,2)-oxazin-2-yl)-2-(1,2,4-triazol-1-yl)-5-(2,4,6-trifluorophenyl)pyrimidine]	141 to 143	–	–	–
CON(c1nc(C#N)nc(Cl)c1-c1c(F)cccc1Cl)C(C)C [Compound 32]	–	0	0	–
CON=C(N)c1nc(Cl)c(-c2c(F)cccc2Cl)c(N(CC2CC2)OC)n1 [Compound 33]	–	–	–	infection (Puccinia recondita): 0%
CON(CC1CC1)c1nc(C#N)nc(Cl)c1-c1c(F)cccc1F [Compound 35]	–	–	–	infection [1]: 5%
COc1nc(Cl)c(-c2c(F)cc(F)cc2F)c(N(CC2CC2)OC)n1 [Compound 40]	–	0	0	–
